Source: US9944597B2, “Polysubstituted pyrroles having microtubule-disrupting, cytotoxic and antitumor activities and methods of use thereof” (THE BOARD OF REGENTS OF THE UNIVERSITY OF TEXAS SYSTEM, priority 2013, dated 2018)
Entries after “also recorded” stand apart in the source; their conditions may differ. Where two headings read alike, the source gives them in different places.

Columns and labels:
A-10 cells [1] = settings: Table 53; literature data from Da et al. 2013; read-out: Microtubule Depolymerization EC50; cited from earlier work
P-glycoprotein = P-glycoprotein (Homo sapiens, UniProt P08183); settings: cited from earlier work
[2] = system: variety of cancer cell lines; settings: average over a variety of cancer cell lines; read-out: antiproliferative activity, average IC50; cited from earlier work
PC-3 xenograft = settings: i.p. dosing at relatively high doses, after 14 days of treatment; cited from earlier work
[3] = system: MDA-MB-435 (human melanoma cancer cells); settings: Table 53; literature data from Da et al. 2013; read-out: MDA-MB-435 Antiproliferative IC50; cited from earlier work
MDA-MB-435 xenograft = MDA-MB-435 xenograft murine model; assay type: in vivo
Procedure: The antitumor activity of NT-7-45 was evaluated in the MDA-MB-435 xenograft murine model of cancer. MDA-MB-435 cells were implanted subcutaneously into both flanks of nude mice. Mice were treated periodically with six injections of NT-7-45 i.p. at 75 mg/kg, suspended in a mixture of Tween80, DMSO and PBS.
The antitumor activity of NT-7-16 was evaluated in the MDA-MB-435 xenograft murine model of cancer. MDA-MB-435 cells were implanted subcutaneously into both flanks of nude mice. Mice were treated on days 1, 4, 7, 11, 14, 18, 20 and 22 by injecting NT-7-16 i.p. at 50 mg/kg suspended in a mixture of Tween80, DMSO and PBS. […] As shown in FIG. 5-7, NT-7-16 inhibited tumor growth as compared to vehicle-treated controls in a statistically significant (p<0.05) manner at days 11, 13, 15, 18 and 22.

HeLa cells [4] = test: Mitotic spindles by indirect immunofluorescence; assay type: cell-based, human; settings: 18 h, 15 nM or 25 nM
Procedure: The effects of NT-7-16 on mitotic spindles were evaluated in HeLa cells by indirect immunofluorescence. HeLa cells were treated for 18 h with (A) vehicle (DMSO), (B) 15 nM NT-7-16 or (C) 25 nM NT-7-16. […] These effects are consistent with the actions of other microtubule disrupting agents. The presence of lagging chromosomes is indicated by the arrows and is caused by disruption of normal microtubule dynamics.

A-10 cells [5] = test: Cellular microtubule loss by indirect immunofluorescence; assay type: cell-based, rat; settings: Rattus norvegicus, A10; Table 53; own compounds; read-out: Microtubule Depolymerization EC50
How it was run: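 Rat embryonic vascular smooth muscle cells were treated across a range of compound concentrations. Microtubules were stained by indirect β-tubulin immunofluorescence, with DAPI for DNA. EC50 is the concentration giving about 50% interphase microtubule loss, scored visually, from curves over at least three experiments.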

HeLa cells [6] = test: Cell cycle distribution by flow cytometry; assay type: cell-based, human; settings: HeLa cells treated for 18 hr; FIG. 3: 25 nM NT-7-16, 12.5 nM paclitaxel
Procedure: The effects of NT-7-16 on cell cycle distribution were determined. […] The cells were stained with Kirshan's reagent (Kirshan, Cell Biol. 66, 188-93 (1975)), and cell cycle distribution was measured using a Millipore Muse flow cytometer.
The effects of NT-7-16 on cell cycle distribution were determined. […] The cells were stained with Kirshan's reagent (Kirshan Cell Biol. 66, 188-93. (1975)), and cell cycle distribution was measured using a Millipore Muse flow cytometer.

[7] = biological target: colchicine binding site on tubulin (Sus scrofa, UniProt P02554); test: Colchicine site binding, fluorometric assay
[8] = system: MDA-MB-435 (human melanoma cancer cells); test: Antiproliferative SRB assay, MDA-MB-435; assay type: cell-based; settings: Homo sapiens, MDA-MB-435; Table 53; own compounds; read-out: MDA-MB-435 Antiproliferative IC50
How it was run: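 After 24 h attachment, MDA-MB-435 cells were exposed to compounds for 48 h, then fixed with trichloroacetic acid. Cellular protein was quantified by sulforhodamine B staining. IC50 for proliferation inhibition was taken from the linear portion of log concentration–response curves.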

[9] = biological target: T1, purified porcine brain tubulin (Sus scrofa, UniProt P02554); test: Inhibition of polymerization of purified tubulin (absorbance at 340 nm); assay type: biochemical
T1 construct: of Purified Porcine Brain Tubulin; from tissue; host or cells: porcine brain
T1 sequence (P02554 whole entry): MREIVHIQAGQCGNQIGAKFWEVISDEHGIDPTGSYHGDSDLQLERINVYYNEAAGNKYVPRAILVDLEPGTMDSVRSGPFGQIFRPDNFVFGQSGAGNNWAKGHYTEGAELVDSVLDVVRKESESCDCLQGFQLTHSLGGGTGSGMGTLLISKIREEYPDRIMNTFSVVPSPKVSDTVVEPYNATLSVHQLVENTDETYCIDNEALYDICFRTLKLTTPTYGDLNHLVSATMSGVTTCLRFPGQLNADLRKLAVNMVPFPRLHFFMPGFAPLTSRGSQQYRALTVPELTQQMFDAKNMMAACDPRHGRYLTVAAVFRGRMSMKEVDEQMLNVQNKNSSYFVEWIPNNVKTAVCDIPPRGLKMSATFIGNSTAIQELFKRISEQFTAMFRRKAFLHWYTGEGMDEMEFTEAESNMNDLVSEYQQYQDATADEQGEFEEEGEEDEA
T1 sequence (P02550 whole entry partner): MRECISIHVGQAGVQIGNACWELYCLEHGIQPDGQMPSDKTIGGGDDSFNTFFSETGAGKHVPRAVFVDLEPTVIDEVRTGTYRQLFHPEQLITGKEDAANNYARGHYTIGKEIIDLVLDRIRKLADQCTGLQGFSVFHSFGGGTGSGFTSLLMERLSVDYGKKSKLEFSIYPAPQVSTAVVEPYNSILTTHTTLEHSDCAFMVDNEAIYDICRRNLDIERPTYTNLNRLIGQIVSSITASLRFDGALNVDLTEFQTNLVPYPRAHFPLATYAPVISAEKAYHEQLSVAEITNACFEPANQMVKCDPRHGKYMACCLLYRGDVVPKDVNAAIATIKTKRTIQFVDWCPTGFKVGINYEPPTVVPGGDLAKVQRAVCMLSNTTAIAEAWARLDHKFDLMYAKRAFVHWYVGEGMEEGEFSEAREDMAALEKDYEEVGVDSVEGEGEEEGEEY

Sequence of colchicine binding site on tubulin (P02554 whole entry): as the sequence (P02554 whole entry) above
Sequence of colchicine binding site on tubulin (P02550 whole entry partner): as the sequence (P02550 whole entry partner) above
Sequence of P-glycoprotein (P08183 whole entry): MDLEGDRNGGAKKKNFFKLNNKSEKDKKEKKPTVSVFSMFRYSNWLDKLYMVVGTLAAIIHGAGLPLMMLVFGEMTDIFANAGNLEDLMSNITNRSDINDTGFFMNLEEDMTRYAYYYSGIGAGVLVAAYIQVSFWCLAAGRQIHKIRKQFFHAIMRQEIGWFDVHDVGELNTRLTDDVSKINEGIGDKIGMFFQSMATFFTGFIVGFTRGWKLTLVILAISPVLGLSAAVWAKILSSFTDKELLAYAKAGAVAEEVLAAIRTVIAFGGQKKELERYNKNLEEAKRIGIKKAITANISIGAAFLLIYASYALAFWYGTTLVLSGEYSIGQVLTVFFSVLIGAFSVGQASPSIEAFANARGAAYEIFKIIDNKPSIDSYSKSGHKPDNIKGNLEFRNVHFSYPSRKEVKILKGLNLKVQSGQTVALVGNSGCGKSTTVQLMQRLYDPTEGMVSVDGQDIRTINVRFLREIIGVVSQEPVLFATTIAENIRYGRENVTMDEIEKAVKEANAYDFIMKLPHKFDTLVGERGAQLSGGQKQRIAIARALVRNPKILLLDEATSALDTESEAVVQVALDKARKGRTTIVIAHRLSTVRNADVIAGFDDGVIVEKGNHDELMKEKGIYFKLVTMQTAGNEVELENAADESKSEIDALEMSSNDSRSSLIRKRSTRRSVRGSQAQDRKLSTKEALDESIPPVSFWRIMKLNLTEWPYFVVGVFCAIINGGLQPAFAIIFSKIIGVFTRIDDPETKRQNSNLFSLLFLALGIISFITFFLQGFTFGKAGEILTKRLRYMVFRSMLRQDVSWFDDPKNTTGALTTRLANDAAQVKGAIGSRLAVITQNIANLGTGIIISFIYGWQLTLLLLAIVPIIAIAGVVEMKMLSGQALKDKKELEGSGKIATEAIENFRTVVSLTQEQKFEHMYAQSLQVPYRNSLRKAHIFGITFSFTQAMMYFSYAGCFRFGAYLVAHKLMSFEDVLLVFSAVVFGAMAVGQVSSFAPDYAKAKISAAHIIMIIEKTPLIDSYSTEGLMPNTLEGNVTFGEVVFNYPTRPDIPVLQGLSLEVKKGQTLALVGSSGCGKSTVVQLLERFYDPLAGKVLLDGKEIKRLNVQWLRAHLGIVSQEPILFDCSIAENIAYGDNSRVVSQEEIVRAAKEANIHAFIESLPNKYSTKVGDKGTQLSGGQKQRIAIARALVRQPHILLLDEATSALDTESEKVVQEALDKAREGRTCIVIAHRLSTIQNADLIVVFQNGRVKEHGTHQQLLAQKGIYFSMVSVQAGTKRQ

| SMILES | EC50 (A-10 cells [1]) | substrate for transport by P-glycoprotein (P-glycoprotein) | IC50 [2] | reduction in tumor burden (PC-3 xenograft) | IC50 [3] | tumor growth in MDA-MB-435 xenograft (MDA-MB-435 xenograft; 50 mg/kg i.p. on days 1, 4, 7, 11, 14, 18, 20, 22, 25-day model) | toxicity in xenograft study (MDA-MB-435 xenograft; 50 mg/kg i.p., eight cumulative doses) | animal body weight (MDA-MB-435 xenograft; 50 mg/kg i.p., over 25 days) | effects on mitotic spindles (HeLa cells [4]) | EC50 (A-10 cells [5]) | cell cycle distribution (HeLa cells [6]) | inhibition at 10 µM ([7]; read-out: inhibition of colchicine binding to tubulin) | effect on colchicine binding (FIG. 9) ([7]; result in words) | IC50 [8] | inhibition of tubulin assembly ([9]; at concentrations of 2-5 μM) | effect on tubulin polymerization (turbidity, FIG. 2, FIG. 10) ([9]; result in words) |
| --- | --- | --- | --- | --- | --- | --- | --- | --- | --- | --- | --- | --- | --- | --- | --- | --- |
| CCOC(=O)c1[nH]c(Br)c(-c2ccc(OC)c(OC)c2)c1Br [JG-03-14, 4-[(3,4-dimethoxy)-phenyl]-3,5-dibromopyrrole 2-carboxylic acid ethyl ester] | 490 nM | poor substrate | 62 nM | greater than 50% | 36 ± 2 nM |  |  |  |  |  |  |  |  |  |  |  |
| CCOC(=O)c1[nH]c(Br)c(-c2ccc(OC)c(OC)c2OC)c1Br [NT-7-16, 3,5-Dibromo-4-(2,3,4-trimethoxyphenyl)-1H-pyrrole-2-carboxylic acid ethyl ester] |  |  |  |  |  | significant antitumor effects; also recorded: prevented tumor growth; also recorded: statistically significant (p<0.05) inhibition of tumor growth | no evidence of toxicity; also recorded: no overt toxicity | no significant change in animal body weight; also recorded: no significant weight loss | aberrant mitotic spindles | 345 nM | initiated mitotic accumulation; also recorded: G2/M arrest | ~80% | concentration dependent inhibition of colchicine binding | 14 ± 5 nM | almost total inhibition | concentration-dependent inhibition of tubulin assembly; also recorded: inhibits tubulin polymerization |
